In ChEMBL document CHEMBL1124036 (J Med Chem, 1988):

The compounds below were run on Vaccinia virus (assay: Virus rating on vaccinia virus measured as the degree of inhibition of virus induced cytopathogenic effect in L929 cells). Conditions: not given.
Type: functional, Orthopoxvirus vaccinia
For `Nc1nc(Cl)nc2c1ncn2C1O[C@H](CO)[C@H](O)[C@H]1Br` (some centres undefined), the Virus rating was 0.4.
`Nc1nc(Cl)nc2c1ncn2C1O[C@H](CO)[C@H](O)[C@H]1Cl` (some centres undefined) gave a Virus rating of 0.7.
`[N-]=[N+]=N[C@H]1C(n2cnc3c(N)nc(F)nc32)O[C@H](CO)[C@@H]1O` (some centres undefined) showed a Virus rating of 2.4.
`Nc1nc(Cl)nc2c1ncn2C1O[C@H](CO)[C@H](O)[C@H]1I` (some centres undefined) showed a Virus rating of 0.
Compound `Nc1nc(F)nc2c1ncn2C1O[C@H](CO)[C@H](O)[C@H]1N` (some centres undefined) has a Virus rating of 0.7.
`Nc1nc(Cl)nc2c1ncn2C1O[C@H](CO)[C@H](O)[C@H]1N` (some centres undefined) was tested, and the Virus rating was 0.6.
With `Nc1nc(F)nc2c1ncn2C1O[C@H](CO)[C@H](O)[C@H]1Cl` (some centres undefined) the Virus rating was 0.6.
For `[N-]=[N+]=N[C@H]1C(n2cnc3c(N)nc(Cl)nc32)O[C@H](CO)[C@@H]1O` (some centres undefined), the Virus rating was 0.8.

Each compound was assayed on Vaccinia virus (assay: The minimum inhibitory concentration required for 50% inhibition of vaccinia virus induced cytopathogenic effect in L929 cells; G indicates CPE reduction <50%). Conditions: Orthopoxvirus vaccinia.
Type: functional, organism-based
For `Nc1nc(Cl)nc2c1ncn2C1O[C@H](CO)[C@H](O)[C@H]1N` (some centres undefined), the MIC50 was “CPE reduction <50%”.
